Data on five compounds can be found in patent US4188402A, “Derivatives of the D-threo-1-phenyl-2-trifluoroacetamido-1,3-propandediol” (Clesa S.p.A., priority 1977, dated 1980).

Data set [1] deals with Staphylococcus albus 1238. Nature of the data set: MIC in vitro against thiamphenicol-resistant strain. The format is cell-based. The settings on record: Staphylococcus albus 1238, thiamphenicol-resistant. From the text: (§1) Furthermore, the compounds of the present invention show a certain bacterial activity, both "in vitro" and in the presence of rabbit serum, in respect of some microorganism strains resistant against thiamphenicol (ie., […]; see Merck Index Ninth Edition, page 9034) as it appears from the following results: […]

For data set [2], the system named is Staphylococcus aureus 4180. Described as above. Format: cell-based. The note with it: Staphylococcus aureus 4180, thiamphenicol-resistant.
Description: as §1

In data set [3] the test system is Streptococcus faecalis Z 20. The description is as above. Format: cell-based. The settings on record: Enterococcus faecalis, Z20, Streptococcus faecalis Z 20, thiamphenicol-resistant.
Description: as §1

Data set [4] concerns Streptococcus faecalis Z 61. Described as above. The note with it: Enterococcus faecalis, Z61, Streptococcus faecalis Z 61, thiamphenicol-resistant. The format is cell-based.
Description: as §1

Data set [5] deals with Pseudomonas aeruginosa 50541. Nature of the data set: MIC in culture broth, in the presence of rabbit serum, against thiamphenicol-resistant strain. The format is cell-based. The settings on record: Pseudomonas aeruginosa 50541, thiamphenicol-resistant. From the text:
(§2) Furthermore, the compounds of the present invention show a certain bacterial activity, both "in vitro" and in the presence of rabbit serum, in respect of some microorganism strains resistant against thiamphenicol (ie., […]; see Merck Index Ninth Edition, page 9034) as it appears from the following results:
(§3) ** = tests carried out in culture broth, in the presence of rabbit serum.

The next data set has as its system Streptococcus faecalis. Described as above. The format is cell-based. The settings on record: Enterococcus faecalis.
Description: as §2, §3

Data set [6] has as its system multocide NCTC 10722 Pasteurella. Nature of the data set: PD50 in experimental infection of the mouse by intraperitoneal inoculation (Table 3). The format is in vivo. The settings on record: 120 h, treatment time 5 days, about 100 times the lethal amount at 50% i.p., Spearman-Karber. The text has this: The study of the antibiotic activity of the derivatives of the present invention was completed by the determination of PD50 in experimental infections from multocide NCTC 10722 Pasteurella induced in the mouse by intraperitoneal inoculation of a bacterial amount equal to about 100 times the lethal amount at 50%. The determination of PD50 relating to the examined derivatives has been carried out according to the method of Spearman-Karber (L. Cavalli-Sforza "Analisi statistica per medici e biologi e analisi del dosaggio biologico"--Ed. Universitarie Boringhieri--Torino--1961, pages 173-175).

A short description of data set [7]: Hydrolysis of the esters in the animal organism. Format: in vivo. The note with it: ester at the alcoholic function.
Data set [8] has as its system grampositive and gram-negative microorganisms as well as Proteus. Nature of the data set: Antibacterial activity of the esterified derivatives compared with Z 2100. The settings on record: after hydrolysis in the animal organism. How it is done: (§4) Insofar as the study of the antibacterial activity spectrum is concerned, this was performed by using the method of agar dilutions in a double series. The minimum inhibitory concentration (MIC) was performed against grampositive and gram-negative microorganisms as well as Proteus.

A further data set concerns E. Coli K12. Nature of the data set: MIC, agar dilutions in a double series, in vitro (Table 2). Format: cell-based. The note with it: Escherichia coli, E. Coli K12, agar dilution. How it is done:
as §4
(In agar dilution, organisms are placed on agar that contains the substance at set levels.)

In data set [9] the test system is Past. multocide NCTC 10722. The data set is described as above. Format: cell-based. The note with it: Past. multocide NCTC 10722, agar dilution. As to the method: as §4
The next data set concerns Proteus morgani N 520. The data set is described as above. The format is cell-based. The settings on record: Proteus morgani N 520, agar dilution. How it is done: as §4
A further data set has as its system S. aureus Oxford. Described as above. The settings on record: Staphylococcus aureus, agar dilution. The format is cell-based. How it is done: as §4
The subject of another data set is Salmonelli Typhi M-VI. The description is as above. Format: cell-based. How it is done:
as §4

A further data set has as its system Strep. agalactiae 4 b. The description is as above. The format is cell-based. The note with it: Streptococcus agalactiae, agar dilution. How it is done: as §4
The test system of data set [10] is Strep. faecalis ATCC 10541. Described as above. The format is cell-based. The settings on record: Enterococcus faecalis, ATCC10541, Strep. faecalis ATCC 10541, agar dilution. How it is done: as §4
Another data set deals with Shighelli Boydii 4. Described as above. Format: cell-based. The settings on record: Shighelli Boydii 4, agar dilution. How it is done: as §4

Converted amounts (≈) assume the structure as drawn.

What is called MIC is the smallest concentration in the dilution series that meets the test's criterion for growth inhibition. Usually ED50 stands for the dose at which the effect has come halfway, by size or by number of responders. A high value points to weaker potency.

Regarding `CS(=O)(=O)c1ccc([C@@H](O)[C@@H](CO)NC(=O)C(Cl)Cl)cc1` [Thiamphenicol, reference compound], the MIC came to 160 µg/mL (≈ 449 µM) in data set [1]; 160 µg/mL (≈ 449 µM) in data set [2]; 160 µg/mL (≈ 449 µM) in [3]; 160 µg/mL (≈ 449 µM) in [4]; 160 µg/mL in data set [5]; 320 µg/mL in the data set with Streptococcus faecalis.

Compound `CS(=O)(=O)c1ccc([C@@H](O)[C@@H](COC(=O)CN)NC(=O)C(F)(F)F)cc1` [Z 2117, D-(+)-threo-1-(p-methanesulphonylphenyl)-2-trifluoroacetamido-3-aminoacetoxy-1-propanol] returned an ED50 in data set [6] (NCTC10722, sc, subcutaneous) of 14.3 mg/kg. Besides, the “hydrolysis in the animal organism” value in data set [7] is “quickly hydrolyzed in the animal organism”. Besides, the “activity relative to Z 2100” value in data set [8] is on record as “show the same activity as Z 2100”.

In [6] (NCTC10722, po, per os), `CCCCCCCCCCCCCCCC(=O)OC[C@@H](NC(=O)C(F)(F)F)[C@H](O)c1ccc(S(C)(=O)=O)cc1` [Z 2112, D-(+)-threo-1-(p-methanesulphonylphenyl)-2-trifluoroacetamido-3-palmitoyloxy-1-propanol] gave a median effective dose (ED50) of 21 mg/kg. For the same compound, the “hydrolysis in the animal organism” value in data set [7] is “quickly hydrolyzed in the animal organism”. The “activity relative to Z 2100” value in [8] is reported as “show the same activity as Z 2100”.

For `CS(=O)(=O)c1ccc([C@@H](O)[C@@H](CO)NC(=O)C(F)(F)F)cc1` [Z 2100, D-(+)-threo-1-(p-methanesulphonylphenyl)-2-trifluoroacetamido-1,3-propanediol], the minimum inhibitory concentration (MIC) amounted to 64 µg/mL (≈ 188 µM) in the data set with E. Coli K12; 2 µg/mL (≈ 5.86 µM) in data set [9]; 8 µg/mL (≈ 23.4 µM) with Proteus morgani N 520; 16 µg/mL (≈ 46.9 µM) with S. aureus Oxford; 32 µg/mL (≈ 93.8 µM) in the data set on Salmonelli Typhi M-VI; 16 µg/mL (≈ 46.9 µM) against Strep. agalactiae 4 b. Further, the MIC in data set [10] amounted to 8 µg/mL (≈ 23.4 µM); in [1] it was 40 µg/mL (≈ 117 µM); in data set [2], 40 µg/mL (≈ 117 µM); in data set [3], 40 µg/mL (≈ 117 µM); in [4] it was 80 µg/mL (≈ 234 µM); in data set [5], 80 µg/mL. In the data set on Streptococcus faecalis, the MIC turned out to be 80 µg/mL. The same compound returned a median effective dose (ED50) in data set [6] (NCTC10722, po, per os) of 19 mg/kg.

For `CSc1ccc([C@@H](O)[C@@H](CO)NC(=O)C(F)(F)F)cc1` [Z 2109, D-(-)-threo-1-(p-methylmercaptophenyl)-2-trifluoroacetamido-1,3-propanediol], the MIC in the data set on E. Coli K12 turned out to be 16 µg/mL (≈ 51.7 µM); in data set [9], 4 µg/mL (≈ 12.9 µM); against Proteus morgani N 520 it was 4 µg/mL (≈ 12.9 µM); in the data set on S. aureus Oxford it was 32 µg/mL (≈ 103 µM); in the data set with Salmonelli Typhi M-VI, 64 µg/mL (≈ 207 µM); against Shighelli Boydii 4, 32 µg/mL (≈ 103 µM). Also, the results for the MIC (in the data set on Strep. agalactiae 4 b; in [10]) were 64 µg/mL (≈ 207 µM) and 32 µg/mL (≈ 103 µM), respectively. In addition, the ED50 in data set [6] (NCTC10722, po, per os) was 16.6 mg/kg.
